Measured values reported in patent US20200129583A1, “COMPOSITION FOR TREATING ACUTE URINARY RETENTION” (ANTEV LIMITED, priority 2018, published 2020).

Tests used:
[1] = system: male patients suffering from BPH; test: International Prostate Symptom Score (I-PSS) in phase II placebo-controlled study; assay type: in vivo, human
Description: (§1) A phase II randomised, double blind, placebo-controlled, multi-centre, multi national study was conducted in order to investigate the use of an Teverelix TFA formulation in the composition according to the invention. In said study the International Prostate Symptom Score (I-PSS), the prostate volume, the urinary flow rate and the testosterone level in males suffering from BPH were evaluated.
(§2) The Teverelix TFA formulation was reconstituted as follows. 0.8 ml 5% mannitol was added to 60 mg of the LHRH antagonist Teverelix trifluoroacetate. The mixture was stirred using vortex during one minute providing a dosage formulation of Teverelix TFA as a flowing milky pearly microcrystalline aqueous suspension. The suspension is made of microcrystals of about 10 μm length. Corresponding placebo formulations, without Teverelix TFA, were also prepared
(§3) Formulation A: 60 mg Teverelix TFA in 0.8 ml 5% mannitol
(§4) Two single injections of Formulation A and Formulation A-placebo was administered s.c. at an interval of 48 hours to 81 male patients (41 on A and 40 on A-placebo) suffering from BPH.
The International Prostate Symptom Score (I-PSS) is based on the answers to seven questions concerning urinary symptoms and one question concerning quality of life. Each question concerning urinary symptoms allows the patient to choose one out of six answers indicating increasing severity of the particular symptom. The answers are assigned points from 0 to 5. The total score can therefore range from 0 to 35 (asymptomatic to very symptomatic).

[2] = system: male patients suffering from BPH; test: Prostate volume in phase II placebo-controlled study; assay type: in vivo, human; conditions: two s.c. injections of 60 mg at an interval of 48 hours
Description: as §1, §2, §3, §4

[3] = system: male patients suffering from BPH; test: Urinary flow rate (Qmax) in phase II placebo-controlled study; assay type: in vivo, human; conditions: two s.c. injections of 60 mg at an interval of 48 hours
Description: as §1, §2, §3, §4

[4] = system: male patients suffering from BPH; test: Serum testosterone level in phase II placebo-controlled study; assay type: in vivo, human; conditions: two s.c. injections of 60 mg at an interval of 48 hours; FIG. 4
Description: as §1, §2, §3, §4

[5] = system: male patients suffering from BPH; test: Side effects with the use of Teverelix TFA; set-up: species or system human; conditions: in vivo
Description: as §1, §4

In the case of “N-Ac-d-Nal^1, d-pCl-Phe^2, d-Pal^3, d-(Hci)^6, Lys(iPr)^8, d-Ala^10 trifluoroacetate [Teverelix TFA]”, the IPSS reduction ([1]; at 2 weeks) is reported as 12.6%, the IPSS reduction ([1]; at 16 weeks) is reported as 33.9% and the “improvement in quality of life score (QoL)” value ([1]; at 16 weeks) is reported as 32.8%. The “time to improvement of symptoms (I-PSS)” value ([1]; two s.c. injections of 60 mg at an interval of 48 hours) was “within two weeks”, the “improvement on I-PSS” value ([1]; two s.c. injections of 60 mg at an interval of 48 hours, 16-week study, FIG. 1) was 39.9% and the “time to prostate volume reduction after initiating therapy” value [2] was “within four weeks”. The prostate volume decrease ([2]; FIG. 2) was 11.5%, the “time to significant increase in the flow rate” value [3] was “within the first two weeks” and the “increase in maximum urinary flow rate (Qmax)” value ([3]; at 16 weeks) was 43%. For the same substance, the “reduction in the testosterone level” value [4] was “immediate reduction”, the “time for testosterone level to return to baseline levels” value [4] was “within eight weeks” and the serious side effects [5] was “no serious side effects”.
